Assay results: publication PMC3817140, “The Role of the Methyltransferase Domain of Bifunctional Restriction Enzyme RM.BpuSI in Cleavage Activity” (PLoS ONE, 2013)

Target: T1, RM.BpuSI (Bacillus pumilus, UniProt G1K3S1)
T1 construct: full-length (REase, helical connector, MTase domain, TRD); recombinant in E. coli ER3081, no tag told; treated with substrate DNA to remove SAM
T1 sequence (G1K3S1 1-878): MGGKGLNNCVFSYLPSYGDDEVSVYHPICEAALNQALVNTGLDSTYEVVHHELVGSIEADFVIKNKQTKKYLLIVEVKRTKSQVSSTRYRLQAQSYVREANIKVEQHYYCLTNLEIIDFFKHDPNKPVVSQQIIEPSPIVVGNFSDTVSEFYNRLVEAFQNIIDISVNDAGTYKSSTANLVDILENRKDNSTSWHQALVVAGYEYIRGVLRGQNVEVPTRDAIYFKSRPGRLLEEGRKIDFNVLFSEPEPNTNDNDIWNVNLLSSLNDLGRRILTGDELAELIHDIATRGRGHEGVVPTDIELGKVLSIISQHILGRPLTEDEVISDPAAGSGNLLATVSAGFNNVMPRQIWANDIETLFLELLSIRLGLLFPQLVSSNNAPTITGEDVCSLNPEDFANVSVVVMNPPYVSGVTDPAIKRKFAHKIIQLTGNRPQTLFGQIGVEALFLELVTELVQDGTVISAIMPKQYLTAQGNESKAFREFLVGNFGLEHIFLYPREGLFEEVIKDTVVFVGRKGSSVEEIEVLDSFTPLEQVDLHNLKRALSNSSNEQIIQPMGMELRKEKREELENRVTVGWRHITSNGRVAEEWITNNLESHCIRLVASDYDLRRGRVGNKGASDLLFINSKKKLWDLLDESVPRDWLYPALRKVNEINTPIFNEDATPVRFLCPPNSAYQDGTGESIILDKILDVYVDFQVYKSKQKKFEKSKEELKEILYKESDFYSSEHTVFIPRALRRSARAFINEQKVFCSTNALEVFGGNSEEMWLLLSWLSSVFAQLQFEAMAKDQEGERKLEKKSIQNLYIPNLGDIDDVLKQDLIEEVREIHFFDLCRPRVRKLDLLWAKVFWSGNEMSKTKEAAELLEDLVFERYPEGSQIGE
Assay: ANS fluorescence titration
Assay type: binding

Kd [µM]	Compound
76.4 ± 18.2	C[S+](CC[C@H](N)C(=O)O)C[C@H]1O[C@@H](n2cnc3c(N)ncnc32)[C@H](O)[C@@H]1O (some centres unmarked) [SAM]
71.1 ± 14.2	Nc1ncnc2c1ncn2[C@@H]1O[C@H](C[C@@H](N)CC[C@H](N)C(=O)O)[C@@H](O)[C@H]1O [sinefungin]
